How the values were obtained:
Solubility in water = type: physicochemical; conditions: except at low or high pH conditions
[1] = tested on: subjects with functional constipation; experiment: Safety and tolerability in the cross-over study; type: in vivo, human; conditions: 3 mg BID for 7 days
Source text: Subjects were given a physical examination, vital signs, and blood and urine samples obtained for safety laboratory studies at the conclusion of their last treatment period. Any abnormal findings were followed until resolution.
(§1) This single-center, randomized, placebo-controlled, crossover trial was designed to determine the effect of alvimopan on bowel transit of patients with chronic constipation. Whole bowel transit (WBT), bowel movement frequency as total bowel movement (BM), and spontaneous complete BM (SCBM), BM symptoms of straining, discomfort, and satisfaction were compared between placebo and alvimopan (3 mg BID) for 7 days. Safety and tolerability were assessed.

[2] = tested on: subjects with functional constipation; experiment: Bowel movement frequency and symptoms by patient self-report diary card, cross-over study; type: in vivo, human
Source text: (§2) Subjects underwent measurement of their whole bowel transit (radio-opaque markers) and oral-cecal transit (hydrogen-breath test) prior to receiving the first treatment (baseline) and at the end of each treatment period. During the screening and treatment periods, subjects recorded the time of each bowel movement (defecatory frequency), an assessment of each stool's consistency (using the Bristol Stool Form Scale), and an overall rating of their satisfaction with their bowel movements over each period (1-5 scale: 1=much worse than usual, 2=worse than usual, 3=no change, 4=better than usual, 5=much better than usual). Stool output per 7-day period was calculated from the weight of all stools collected during each treatment period (stools collected over the 7-day assessment period).
Each treatment period comprised seven days of dosing (oral alvimopan 3 mg or matching placebo, given at 8:00 AM and 8:00 PM). For each defecation, subjects recorded the time, date, and stool form (Bristol Stool Form Criteria) (Heaton, et al., Gut, 1991, 73-79). Subjects rated their overall satisfaction with their bowel movements for the treatment period on Day 7.
For Day 1 of each treatment period, the following procedures were conducted in the clinic prior to the morning dosing: a urine drug screen, and a urine/serum pregnancy test (when applicable), semi-supine (i.e., 45-degree angle, pillow, etc.) blood pressure and pulse rate measurements and recording of baseline signs and symptoms. All subjects received their first dose of alvimopan 3 mg or placebo after a light breakfast in the clinic at approximately 8 AM in the morning and according to the randomization schedule. Each dose of alvimopan or placebo was taken with 240 ml of still room-temperature water at each dosing occasion. Subjects were then dispensed the study drug to be taken until the evening dose on Day 5, as well as the Stizmark capsules containing the radio-opaque markers and discharged. Subjects were admitted to the study unit on the evening of Day 5 until completion of the transit studies on Day 7. They were asked to complete a medication diary with the times of morning and evening dosing as an outpatient, as well as any symptoms they experienced at home. Subjects collected all stools from Days 1 to 7. Subjects recorded the time, date, and stool form (Bristol Stool Form Criteria) (Heaton, et al., Gut, 1991, 73-79) for each defecation. Subjects rated their overall satisfaction with their bowel movements for the treatment period on Day 7.
as §1
(§3) The following were performed for each test arm: WBT estimated by a weighted sum of retained radio-opaque markers (based on number and location in the colon on single x-ray 48 hours post marker ingestion) and mean colonic transit time (MCTT) calculated by the method of Metcalf et al., Gastroenterology, 1987, 92: 40-47; and bowel movement frequency (BMF) and symptoms by patient self-report diary card.

[3] = tested on: subjects with functional constipation; experiment: Whole bowel transit (radio-opaque markers) and mean colonic transit time, placebo-controlled cross-over study; type: in vivo, human; conditions: 3 mg BID for 7 days
Description: A single-center, placebo-controlled, randomized, double-blind, balanced two period cross-over study of the effect of alvimopan on GI transit in subjects with functional constipation was carried out.
Subjects (n=24) meeting the initial screening criteria for functional constipation by history, and who had 3 or fewer stools during a 7-day screening period, were randomly assigned to receive initially either orally-administered alvimopan, 3 mg twice daily for 7 days or matching placebo. Following a two- to four-week washout period, subjects received the opposite treatment for a 7-day period.
as §2
Whole bowel transit was determined by using a modification of the radio-opaque marker method developed by Metcalf et al., Gastroenterology, 1987, 92: 40-47. This method is reproducible and correlates well with scintigraphic methods of measuring colonic transit (Degen, et al., Gut, 1996, 39: 299-305). Subjects ingested, at 8:00 AM on the mornings of Days 3, 4, 5, one capsule containing 24 radio-opaque markers (Sitzmark; Konsyl Pharmaceuticals, Fort Worth, Tex.). Stools from Days 3 to 7 were collected and examined by x-ray for the presence of the radio-opaque markers. […] Weights were assigned to the six locations in the colon and a weighted average of the number of radio-opaque markers in the colon was calculated. […]
This single-center, randomized, placebo-controlled, crossover trial was designed to determine the effect of alvimopan on bowel transit of patients with chronic constipation. […] Safety and tolerability were assessed.
as §3

[4] = tested on: subjects with functional constipation; experiment: Oral-cecal transit time, lactulose hydrogen breath test, cross-over study; type: in vivo, human; conditions: 3 mg BID, Day 7, lactulose hydrogen breath test
Source text: as §2
The transit time for mouth to cecum, a reflection of small bowel transit, was measured utilizing the hydrogen breath test. […] The time between ingestion of lactulose (10 g) and the sustained increase in hydrogen in the breath (hydrogen concentration in end-expiratory breath samples as measured by gas chromatography) represents the oral-cecal transit time (OCTT). […] Breath samples were measured every 15 minutes following ingestion of the lactulose. Transit time was determined by the first time of three consecutive samples in which there was at least a doubling of the baseline breath hydrogen concentration. […]

healthy volunteers = experiment: Ascending dose level safety study (Phase I) of alvimopan, TID for 4 days; type: in vivo
Source text: This was an ascending dose level safety study (Phase I) intended to determine the frequency and severity of adverse events (AEs) and to estimate the maximum tolerated dose of alvimopan. Subjects were screened to ensure their status as healthy volunteers. They were only enrolled if they had no clinically significant abnormalities on history, physical, or laboratory examinations. Post study physical examination and laboratory tests, including serum chemistries and complete blood count, were performed.
Alvimopan or placebo was administered TID for 4 days.
One subject in each dose group was randomly assigned to receive placebo that was identical in appearance to the active study medication.
Forty-four subjects were randomized for treatment. One subject at each dose level received placebo (N=5); the rest received alvimopan. […] The incidence of gastrointestinal AEs increased with increasing dose of alvimopan. One or more incidence of mild or moderate “abdominal pain” was reported by 83-100% of subjects receiving 18 or 54 mg daily doses (6 or 18 mg TID), but was infrequent at lower doses (range 11-18%). One or more incidence of diarrhea was reported by 83% of subjects receiving 54 mg daily doses (18 mg TID), but was infrequent at lower doses (range 9-22%). One or more incidence of flatulence was reported by 50-78% of subjects receiving 18 or 54 mg daily doses (6 or 18 mg TID), but was less frequent at lower doses (range 18-33%). One subject receiving the highest dose, 54 mg/day (18 mg TID), withdrew during the second day of dosing due to adverse events of abdominal pain, nausea, and diarrhea.

[5] = 18 or 54 mg daily doses (6 or 18 mg TID)

C[C@H]1CN(C[C@H](Cc2ccccc2)C(=O)NCC(=O)O)CC[C@@]1(C)c1cccc(O)c1 [alvimopan, [[(2S)-2-[[(3R,4R)-4-(3-hydroxyphenyl)-3,4-dimethylpiperidin-1-yl]methyl]-3-phenylpropanoyl]amino]acetic acid dihydrate]
solubility in water (Solubility in water): low solubility | incidence of GI-related adverse effects versus placebo arm [1]: slightly higher | severity of adverse events ([1]; both arms): generally mild | premature discontinuation due to an adverse effect ([1]; either treatment arm): No subjects prematurely discontinued | BM consistency compared to placebo ([2]; 3 mg BID for 7 days): improved | BM discomfort compared to placebo ([2]; 3 mg BID for 7 days): improved | BM satisfaction compared to placebo ([2]; 3 mg BID for 7 days): improved | BM straining compared to placebo ([2]; 3 mg BID for 7 days): improved | mean increase above baseline for SCBM ([2]; 3 mg BID over 7 days, placebo 0.3): 0.6 | mean increase above baseline for BMF ([2]; 3 mg BID over 7 days, placebo 0.5): 1.0 | mean bowel movement Bristol Stool Form Scale score ([2]; FIG. 2, 3 mg BID for 7 days): increased | % of bowel movements with no/mild straining or discomfort ([2]; FIG. 3, 3 mg BID for 7 days): increased | reduction in MCTT versus placebo [3]: 19% | reduction in weighted sum of retained radio-opaque markers (faster whole bowel transit) versus placebo ([3]; p<0.049): 32% | mean colonic transit time (MCTT) ([3]; placebo 69±5): 56 ± 6 h | WBT, weighted sum of retained radio-opaque markers ([3]; placebo 160±17): 109±17 WSM | OCTT v. placebo [4]: not changed | subjects reporting one or more incidence of diarrhea (healthy volunteers; 54 mg daily doses (18 mg TID)): 83% | subjects withdrawn due to adverse events of abdominal pain, nausea, and diarrhea (healthy volunteers; 54 mg/day (18 mg TID), second day of dosing): One | subjects reporting one or more incidence of flatulence (healthy volunteers; [5]): 50-78% | subjects reporting one or more incidence of mild or moderate abdominal pain (healthy volunteers; [5]): 83-100% | tolerability (healthy volunteers; doses up to 54 mg daily (18 mg TID) for 4 days): generally well tolerated | subjects reporting one or more incidence of diarrhea (healthy volunteers; lower doses): 9-22% | subjects reporting one or more incidence of flatulence (healthy volunteers; lower doses): 18-33% | subjects reporting one or more incidence of mild or moderate abdominal pain (healthy volunteers; lower doses): 11-18%

Reference: patent US20050148630A1, “Methods of preventing and treating non-opioid induced gastrointestinal dysfunction” (priority 2003, published 2005)
